Where “and” joins values, the source holds several entries; their conditions need not be identical. Equal entries are not always repeated. Where two headings read alike, the source gives them in different places. Bridge positions count the residues as written; N and C are the ends. Peptide text beside a SMILES is read from it.
Molecular target: T1, soluble human FcRn (Homo sapiens, UniProt P55899)
T1 construct: Soluble human FcRn was expressed and purified by Biogen-Idec as previously described (29)
Assay: SPR (Biacore) affinity of peptides for immobilized soluble human FcRn
Assay type: binding
Protocol: SPR analyses were conducted using a Biacore 3000 or T100 instrument. Research-grade CM5 sensor chips and all coupling reagents for immobilization were purchased from Biacore. All proteins were cross-linked to the dextran surface of a CM5 sensor chip by standard amine coupling chemistry as recommended by Biacore. […] Binding experiments were performed at pH 6.0 or 7.4 using 50 mM phosphate, 100 mM sodium chloride and 0.01% surfactant P20. […] Bound albumin protein was then allowed to dissociate from the chip for 5 minutes with running buffer. Any remaining albumin was removed from the chip with a 60 second injection (2 cycles) of pH 8.0 Tris-HCl regeneration buffer (1 M Tris pH 8.0) at 25 μL/min flow rate. The binding responses recorded near the end of the association phase were plotted as a function of concentration. Equilibrium dissociation constants (KD), were derived from sensorgrams using the 1:1 binding model of BIAevaluation software 4.1.

[1] = Table 1, pH 6, shFcRn immobilized on the sensor chip, steady state fit, read-out: Kd, pH 6** Biacore
[2] = Table 2, pH 7.4, data only 100 uM, therefore Kd may be higher, read-out: Kd, pH 7.4 Biacore
[3] = Table 2, pH 6, immobilized shFcRn, data fit steady state or 2 site, read-out: Kd, pH 6** Biacore

Row | Compound | Kd Ratio 7.4/6.0 (Table 2) | further results
1 | CC(=O)N[C@@H](CCCNC(=N)N)C(=O)N[C@@H](Cc1ccc(O)cc1)C(=O)N[C@@H](Cc1ccccc1)C(=O)N[C@@H](C)C(=O)N[C@H](C(=O)N[C@@H](CCCCN)C(=O)N[C@@H](Cc1c[nH]c2ccccc12)C(=O)N[C@@H](CCCCN)C(=O)N[C@@H](Cc1c[nH]cn1)C(=O)NCC(=O)N[C@@H](Cc1c[nH]c2ccccc12)C(=O)N[C@@H](C)C(=O)N[C@@H](CCC(=O)O)C(=O)N[C@@H](CCC(=O)O)C(=O)N[C@H](C(N)=O)C(C)C)[C@@H](C)O [SYN1558] (Ac-RYFATKWKHGWAEEV-NH2) |  | Kd [1]: > 100 µM
2 | CSCC[C@@H]1NC(=O)[C@H](CCC(=O)O)NC(=O)[C@H](CCC(=O)O)NC(=O)[C@H](CC(=O)O)NC(=O)[C@H](Cc2c[nH]c3ccccc23)NC(=O)[C@H](Cc2c[nH]c3ccccc23)NC(=O)[C@@H](NC(=O)[C@H](CCCNC(=N)N)NC(=O)[C@H](CCSC)NC(=O)[C@@H](NC(C)=O)C(C)C)CSSC[C@@H](C(=O)N[C@@H](CCCNC(=N)N)C(=O)N[C@@H](C)C(=O)N[C@@H](Cc2ccccc2)C(N)=O)NC(=O)[C@H](CC(C)C)NC1=O [SYN1534] (Ac-VMRCWWDEEMLCRAF-NH2; disulfide 4-12 (inferred)) | 125 | 
3 | CSCC[C@@H]1NC(=O)[C@H](CCC(=O)O)NC(=O)[C@H](CCC(=O)O)NC(=O)[C@H](CC(=O)O)NC(=O)[C@H](Cc2c[nH]c3ccccc23)NC(=O)[C@H](Cc2c[nH]c3ccccc23)NC(=O)[C@@H](NC(=O)[C@H](CCCCN)NC(=O)[C@H](CCSC)NC(=O)[C@@H](NC(C)=O)C(C)C)CSSC[C@@H](C(=O)N[C@@H](CCC(=O)O)C(=O)N[C@@H](C)C(=O)N[C@@H](Cc2ccccc2)C(N)=O)NC(=O)[C@H](CC(C)C)NC1=O [SYN1538] (Ac-VMKCWWDEEMLCEAF-NH2; disulfide 4-12 (inferred)) | 71 | 
4 | CSCC[C@@H]1NC(=O)[C@H](CCC(=O)O)NC(=O)[C@H](CCC(=O)O)NC(=O)[C@H](CC(=O)O)NC(=O)[C@H](Cc2c[nH]c3ccccc23)NC(=O)[C@H](Cc2c[nH]c3ccccc23)NC(=O)[C@@H](NC(=O)[C@H](Cc2c[nH]cn2)NC(=O)[C@H](CCSC)NC(=O)[C@@H](NC(C)=O)C(C)C)CSSC[C@@H](C(=O)N[C@@H](CCCNC(=N)N)C(=O)N[C@@H](C)C(=O)N[C@@H](Cc2ccccc2)C(N)=O)NC(=O)[C@H](CC(C)C)NC1=O [SYN1533] (Ac-VMHCWWDEEMLCRAF-NH2; disulfide 4-12 (inferred)) | 106 | 
5 | CSCC[C@@H]1NC(=O)[C@H](CCC(=O)O)NC(=O)[C@H](CCC(=O)O)NC(=O)[C@H](CC(=O)O)NC(=O)[C@H](Cc2c[nH]c3ccccc23)NC(=O)[C@H](Cc2c[nH]c3ccccc23)NC(=O)[C@@H](NC(=O)[C@H](CCCCN)NC(=O)[C@H](CCSC)NC(=O)[C@@H](NC(=O)CNC(=O)[C@H](C)NC(C)=O)C(C)C)CSSC[C@@H](C(=O)N[C@@H](CCCNC(=N)N)C(=O)N[C@@H](C)C(=O)N[C@@H](Cc2ccccc2)C(=O)NCC(=O)N[C@H](C(=O)NCC(=O)NCC(=O)NCC(=O)N[C@@H](CCCCN)C(N)=O)[C@@H](C)O)NC(=O)[C@H](CC(C)C)NC1=O [SYN531] (Ac-AGVMKCWWDEEMLCRAFGTGGGK-NH2; disulfide 6-14 (inferred)) | 99 | Kd [3]: 0.45 µM and 0.3 µM
6 | CSCC[C@@H]1NC(=O)[C@H](CCC(=O)O)NC(=O)[C@H](CCC(=O)O)NC(=O)[C@H](CC(=O)O)NC(=O)[C@H](Cc2c[nH]c3ccccc23)NC(=O)[C@H](Cc2c[nH]c3ccccc23)NC(=O)[C@@H](NC(=O)[C@H](CCCCN)NC(=O)[C@H](CCSC)NC(=O)[C@@H](NC(C)=O)C(C)C)CSSC[C@@H](C(=O)N[C@@H](CCCNC(=N)N)C(=O)N[C@@H](C)C(=O)N[C@@H](Cc2ccccc2)C(N)=O)NC(=O)[C@H](CC(C)C)NC1=O [SYN1532] (Ac-VMKCWWDEEMLCRAF-NH2; disulfide 4-12 (inferred)) | 112 | Kd [2]: 17.3 µM
7 | CC(=O)N[C@@H](CCCNC(=N)N)C(=O)N[C@@H](Cc1ccc(O)cc1)C(=O)N[C@@H](Cc1ccccc1)C(=O)N[C@H]1CSSC[C@@H](C(=O)N[C@@H](CCC(=O)O)C(=O)N[C@@H](CCC(=O)O)C(=O)N[C@H](C(N)=O)C(C)C)NC(=O)[C@H](C)NC(=O)CNC(=O)[C@H](Cc2c[nH]cn2)NC(=O)[C@H](CCCCN)NC(=O)[C@H](Cc2c[nH]c3ccccc23)NC(=O)[C@H](CCCCN)NC(=O)[C@H]([C@@H](C)O)NC1=O [SYN1551] (Ac-RYFCTKWKHGACEEV-NH2; disulfide 4-12) |  | Kd [1]: > 200 µM
8 | CSCC[C@H](NC(=O)[C@@H](NC(C)=O)C(C)C)C(=O)N[C@@H](Cc1c[nH]cn1)C(=O)N[C@H]1CSSC[C@@H](C(=O)N[C@@H](CC(=O)O)C(=O)N[C@@H](CCC(N)=O)C(=O)NCC(N)=O)NC(=O)[C@H](CCCCN)NC(=O)[C@H](Cc2ccccc2)NC(=O)[C@H](CCC(=O)O)NC(=O)[C@H](CCC(=O)O)NC(=O)[C@H](CC(=O)O)NC(=O)[C@H](Cc2c[nH]c3ccccc23)NC(=O)[C@H](C)NC1=O [SYN1217] (Ac-VMHCAWDEEFKCDQG-NH2; disulfide 4-12) |  | Kd [3]: > 20 µM; Kd, pH 7.4 Biacore (Table 2, pH 7.4, data only 100 uM, therefore Kd may be higher): no bind
9 | CSCC[C@H](NC(=O)[C@H](Cc1ccc(O)cc1)NC(C)=O)C(=O)N[C@H](C(=O)N[C@H]1CSSC[C@@H](C(=O)N[C@@H](CCC(=O)O)C(=O)N[C@@H](Cc2ccc(O)cc2)C(=O)N[C@@H](C)C(N)=O)NC(=O)[C@H](CO)NC(=O)[C@H](Cc2ccccc2)NC(=O)CNC(=O)[C@H](CC(=O)O)NC(=O)[C@H](CC(=O)O)NC(=O)[C@H](Cc2c[nH]c3ccccc23)NC(=O)[C@H](CCCCN)NC1=O)[C@@H](C)O [SYN1156] (Ac-YMTCKWDDGFSCEYA-NH2; disulfide 4-12 (inferred)) | 38 | Kd [2]: 22 µM

More lines, main results first:

Row | Kd Ratio 7.4/6.0 (Table 2) | Compound | further results
10 | 132 | CSCC[C@H](NC(=O)[C@@H](NC(C)=O)C(C)C)C(=O)N[C@@H](Cc1c[nH]cn1)C(=O)N[C@H]1CSSC[C@@H](C(=O)N[C@@H](CC(=O)O)C(=O)N[C@@H](Cc2ccc(O)cc2)C(=O)NCC(N)=O)NC(=O)[C@H](CCCCN)NC(=O)[C@H](Cc2ccccc2)NC(=O)[C@H](CCC(=O)O)NC(=O)[C@H](CCC(=O)O)NC(=O)[C@H](CC(=O)O)NC(=O)[C@H](Cc2c[nH]c3ccccc23)NC(=O)[C@H](Cc2ccccc2)NC1=O [SYN1259] (Ac-VMHCFWDEEFKCDYG-NH2; disulfide 4-12 (inferred)) | Kd [2]: 12 µM
11 | 84 | CSCC[C@H](NC(=O)[C@@H](NC(C)=O)C(C)C)C(=O)N[C@@H](Cc1c[nH]cn1)C(=O)N[C@H]1CSSC[C@@H](C(=O)N[C@@H](CC(=O)O)C(=O)N[C@@H](CCC(N)=O)C(=O)NCC(N)=O)NC(=O)[C@H](CCCCN)NC(=O)[C@H](Cc2ccccc2)NC(=O)[C@H](CCC(=O)O)NC(=O)[C@H](CCC(=O)O)NC(=O)[C@H](CC(=O)O)NC(=O)[C@H](Cc2c[nH]c3ccccc23)NC(=O)[C@H](Cc2ccccc2)NC1=O [SYN1197] (Ac-VMHCFWDEEFKCDQG-NH2; disulfide 4-12 (inferred)) | 
12 | 25 | CSCC[C@H](NC(=O)[C@@H](NC(C)=O)C(C)C)C(=O)N[C@@H](Cc1c[nH]cn1)C(=O)N[C@H]1CSSC[C@@H](C(=O)N[C@@H](CC(=O)O)C(=O)N[C@@H](CCC(N)=O)C(=O)NCC(N)=O)NC(=O)[C@H](CCCNC(=N)N)NC(=O)[C@H](Cc2ccccc2)NC(=O)[C@H](C)NC(=O)[C@H](CCC(=O)O)NC(=O)[C@H](CC(=O)O)NC(=O)[C@H](Cc2c[nH]c3ccccc23)NC(=O)[C@H](Cc2ccccc2)NC1=O [SYN1382] (Ac-VMHCFWDEAFRCDQG-NH2; disulfide 4-12 (inferred)) | 
13 | 52 | CSCC[C@H](NC(=O)[C@@H](NC(C)=O)C(C)C)C(=O)N[C@@H](Cc1c[nH]cn1)C(=O)N[C@H]1CSSC[C@@H](C(=O)N[C@@H](CC(=O)O)C(=O)N[C@@H](CCC(N)=O)C(=O)NCC(N)=O)NC(=O)[C@H](CCCCN)NC(=O)[C@H](Cc2ccccc2)NC(=O)[C@H](C)NC(=O)[C@H](CCC(=O)O)NC(=O)[C@H](CC(=O)O)NC(=O)[C@H](Cc2c[nH]c3ccccc23)NC(=O)[C@H](Cc2ccccc2)NC1=O [SYN1216] (Ac-VMHCFWDEAFKCDQG-NH2; disulfide 4-12 (inferred)) | 
14 | 35 | CSCC[C@@H]1NC(=O)[C@H](CCC(=O)O)NC(=O)[C@H](CCC(=O)O)NC(=O)[C@H](CC(=O)O)NC(=O)[C@H](Cc2c[nH]c3ccccc23)NC(=O)[C@H](Cc2ccccc2)NC(=O)[C@@H](NC(=O)[C@H](CCCCN)NC(=O)[C@H](CCSC)NC(=O)[C@@H](NC(C)=O)C(C)C)CSSC[C@@H](C(=O)N[C@@H](CCCNC(=N)N)C(=O)N[C@@H](C)C(=O)N[C@@H](Cc2ccccc2)C(N)=O)NC(=O)[C@H](CC(C)C)NC1=O [SYN1535] (Ac-VMKCFWDEEMLCRAF-NH2; disulfide 4-12 (inferred)) | 
15 | 69 | CSCC[C@H](NC(=O)[C@H](Cc1ccc(O)cc1)NC(C)=O)C(=O)N[C@@H](Cc1c[nH]cn1)C(=O)N[C@H]1CSSC[C@@H](C(=O)N[C@@H](CC(=O)O)C(=O)N[C@@H](CCC(N)=O)C(=O)NCC(N)=O)NC(=O)[C@H](CCCCN)NC(=O)[C@H](Cc2ccccc2)NC(=O)[C@H](CCC(=O)O)NC(=O)[C@H](CCC(=O)O)NC(=O)[C@H](CC(=O)O)NC(=O)[C@H](Cc2c[nH]c3ccccc23)NC(=O)[C@H](Cc2ccccc2)NC1=O [SYN1256] (Ac-YMHCFWDEEFKCDQG-NH2; disulfide 4-12 (inferred)) | 

Reference: US10588935B2, “FC receptor (FcRn) binding peptides and uses thereof” (THE BRIGHAM AND WOMEN'S HOSPITAL, INC., priority 2013, dated 2020)
